pEC50: −log10 of the molar value.
System: T1, AncLophoSR (ancestral lophotrochozoan steroid receptor, ML reconstruction; GenBank KC261633)
T1 construct: resurrected LBD with the hinge domain and C-terminus of CgER, Gal4-DBD fusion
Test: Gal4-DBD fusion dual luciferase reporter assay in transfected CHO-K1 cells
Type: cell-based, synthetic construct

## C[C@]12CC[C@@H]3c4ccc(O)cc4CC[C@H]3[C@@H]1CC[C@@H]2O [17β-estradiol]
  pEC50: 7.92

Source: paper PMC3886901, “Vestigialization of an Allosteric Switch: Genetic and Structural Mechanisms for the Evolution of Constitutive Activity in a Steroid Hormone Receptor” (PLoS Genetics, 2014)
